Publication PMC6259751, “Investigating Spectrum of Biological Activity of 4- and 5-Chloro-2-hydroxy-N-[2-(arylamino)-1-alkyl-2-oxoethyl]benzamides” (Molecules, 2011)
≈ marks a conversion by molar mass, not a printed value. Where “and” joins values, the source holds several entries; their conditions need not be identical. Equal entries are not always repeated. Where two headings read alike, the source gives them in different places.

Tests used:
[1] = Lipophilicity determination by RP-HPLC (capacity factor k / log k); format: physicochemical; conditions: C18 column, MeOH 70% / H2O 30%, isocratic
Experimental: Hydrophobicities (log P/Clog P) of compounds 8 and 9 were calculated using two commercially available programs (ChemOffice Ultra 10.0 and ACD/LogP) and measured by means of RP-HPLC determination of capacity factors k with subsequent calculation of log k. The procedure was performed under isocratic conditions with methanol as an organic modifier in the mobile phase using an end-capped non-polar C18 stationary RP column. The results are shown in Table 1 and illustrated in Figure 1.
A Waters Alliance 2695 XE HPLC separation module and a Waters Photodiode Array Detector 2996 (Waters Corp., Milford, MA, USA) were used. A Symmetry® C18 5 μm, 4.6 × 250 mm, Part No. WAT054275 (Waters Corp., Milford, MA, USA) chromatographic column was used. The HPLC separation process was monitored by Empower™ 2 Chromatography Data Software, Waters 2009 (Waters Corp., Milford, MA, USA). A mixture of MeOH p.a. (70%) and H2O-HPLC – Mili-Q Grade (30%) was used as a mobile phase. The total flow of the column was 1.0 mL/min, injection volume, 30 μL, column temperature, 30 °C and sample temperature, 10 °C. The detection wavelength of 210 nm was chosen. The KI methanolic solution was used for the dead time (tD) determination. Retention times (tR) were measured in minutes. The capacity factors k were calculated using the Empower™ 2 Chromatography Data Software according to formula k = (tR - tD)/tD, where tR is the retention time of the solute, whereas tD denotes the dead time obtained using an unretained analyte. Log k, calculated from the capacity factor k, is used as the lipophilicity index converted to log P scale.

[2] = system: Mycobacterium tuberculosis MTB CNCTC My 331/88; assay: In vitro antimycobacterial evaluation; format: cell-based; conditions: IC90 value
[3] = system: Mycobacterium avium MA CNCTC My 330/88; assay: In vitro antimycobacterial evaluation; format: cell-based; conditions: IC90 value
[4] = system: Mycobacterium kansasii MK CNCTC My 235/80; assay: In vitro antimycobacterial evaluation; format: cell-based; conditions: IC90 value
[5] = system: Candida tropicalis 156; assay: In vitro antifungal susceptibility testing (broth microdilution); format: cell-based; conditions: M27-A2 for yeasts, IC80 value
[6] = system: Trichophyton mentagrophytes 445; assay: as above; format: cell-based; conditions: M38-A for moulds, IC50 value, read-out: MIC TM
[7] = system: Staphylococcus aureus CCM 4516/08; assay: In vitro antibacterial susceptibility testing (broth microdilution); conditions: read-out: MIC SA
[8] = system: methicilin resistant Staphylococcus aureus H 5996/08; assay: as above
[9] = system: Staphylococcus epidermidis H 6966/08; assay: as above; conditions: read-out: MIC SE
[10] = system: Enterococcus sp. J 14365/08; assay: as above; conditions: read-out: MIC EF

Row | Compound | log k [1] | MIC ([2]; 14h) [µM] | MIC ([2]; 21h) [µM] | MIC ([3]; 14h) [µM] | MIC ([3]; 21h) [µM] | MIC ([4]; 14h) [µM] | MIC ([4]; 21h) [µM] | MIC ([5]; 24h) [µM] | MIC ([5]; 48h) [µM] | MIC ([6]; 72h) [µM] | MIC ([6]; 120h) [µM] | MIC ([7]; CCM4516, 24 h) [µM] | MIC ([7]; CCM4516, 48 h) [µM] | MIC ([8]; MRSA, 24 h, read-out: MIC MRSA) [µM] | MIC ([8]; MRSA, 48 h, read-out: MIC MRSA) [µM] | MIC ([8]; read-out: activity against methicillin-resistant Staphylococcus aureus (MIC)) [µM] | MIC ([9]; H6966/08, 24 h) [µM] | MIC ([9]; H6966/08, 48 h) [µM] | MIC ([10]; SP.J14365/08, 24 h) [µM] | MIC ([10]; SP.J14365/08, 48 h) [µM]
1 | CC(C)[C@@H](NC(=O)c1cc(Cl)ccc1O)C(=O)Nc1ccc(Cl)cc1 [8j] | 0.6125 | 32 (≈ 12.2 µg/mL) | 32 (≈ 12.2 µg/mL) | 62.5 (≈ 23.8 µg/mL) | 62.5 (≈ 23.8 µg/mL) | 62.5 (≈ 23.8 µg/mL) | 62.5 (≈ 23.8 µg/mL) | > 125 | > 125 | 62.5 (≈ 23.8 µg/mL) | 62.5 (≈ 23.8 µg/mL) | 7.81 (≈ 2.98 µg/mL) | 7.81 (≈ 2.98 µg/mL) | 7.81 (≈ 2.98 µg/mL) | 7.81 (≈ 2.98 µg/mL) | 7.81 (≈ 2.98 µg/mL) | 31.2 (≈ 11.9 µg/mL) | 125 (≈ 47.7 µg/mL) | 250 (≈ 95.3 µg/mL) | 500 (≈ 191 µg/mL)
2 | O=C(N[C@H](Cc1ccccc1)C(=O)Nc1cccc(Cl)c1)c1cc(Cl)ccc1O [8g, N-{(1S/R)-1-benzyl-2-[(3-chlorophenyl)amino]-2-oxoethyl}-5-chloro-2-hydroxybenzamide] | 0.70 and 0.7066 | 62.5 (≈ 26.8 µg/mL) | 62.5 (≈ 26.8 µg/mL) | 32 (≈ 13.7 µg/mL) | 32 (≈ 13.7 µg/mL) | 62.5 (≈ 26.8 µg/mL) | 62.5 (≈ 26.8 µg/mL) | 31.2 (≈ 13.4 µg/mL) | 125 (≈ 53.7 µg/mL) | 125 (≈ 53.7 µg/mL) | 125 (≈ 53.7 µg/mL) | > 500 | > 500 | > 500 | > 500 | – | > 500 | > 500 | > 500 | > 500
3 | CC(C)[C@@H](NC(=O)c1cc(Cl)ccc1O)C(=O)Nc1ccc(Cl)c(Cl)c1 [8p] | 0.8614 | 16 (≈ 6.65 µg/mL) | 32 (≈ 13.3 µg/mL) | 62.5 (≈ 26 µg/mL) | 125 (≈ 52 µg/mL) | 32 (≈ 13.3 µg/mL) | 62.5 (≈ 26 µg/mL) | > 125 | > 125 | > 125 | > 125 | > 500 | > 500 | > 500 | > 500 | – | > 500 | > 500 | > 500 | > 500
4 | CC1(C)S[C@@H]2[C@H](NC(=O)Cc3ccccc3)C(=O)N2[C@H]1C(=O)O [PEN, penicillin G, reference compound] | – | – | – | – | – | – | – | – | – | – | – | 0.24 (≈ 0.0803 µg/mL) | 0.24 (≈ 0.0803 µg/mL) | 125 (≈ 41.8 µg/mL) | 125 (≈ 41.8 µg/mL) | – | 31.6 (≈ 10.6 µg/mL) | 125 (≈ 41.8 µg/mL) | 7.81 (≈ 2.61 µg/mL) | 15.6 (≈ 5.22 µg/mL)
5 | CC(C)[C@H](NC(=O)c1cc(Cl)ccc1O)C(=O)Nc1ccc(Cl)cc1 [8i] | 0.6371 | 32 (≈ 12.2 µg/mL) | 32 (≈ 12.2 µg/mL) | 62.5 (≈ 23.8 µg/mL) | 62.5 (≈ 23.8 µg/mL) | 62.5 (≈ 23.8 µg/mL) | 62.5 (≈ 23.8 µg/mL) | > 125 | > 125 | > 125 | > 125 | 7.81 (≈ 2.98 µg/mL) | 15.6 (≈ 5.96 µg/mL) | 15.6 (≈ 5.96 µg/mL) | 15.6 (≈ 5.96 µg/mL) | – | 31.2 (≈ 11.9 µg/mL) | 250 (≈ 95.3 µg/mL) | 31.2 (≈ 11.9 µg/mL) | 150 (≈ 57.2 µg/mL)
6 | CC(C)[C@H](NC(=O)c1cc(Cl)ccc1O)C(=O)Nc1ccc(Cl)c(Cl)c1 [8o] | 0.8623 | 32 (≈ 13.3 µg/mL) | 32 (≈ 13.3 µg/mL) | 62.5 (≈ 26 µg/mL) | 125 (≈ 52 µg/mL) | 32 (≈ 13.3 µg/mL) | 62.5 (≈ 26 µg/mL) | > 125 | > 125 | > 125 | > 125 | > 500 | > 500 | > 500 | > 500 | – | > 500 | > 500 | > 500 | > 500
7 | O=C(N[C@H](Cc1ccccc1)C(=O)Nc1ccc(Br)cc1)c1cc(Cl)ccc1O [8v] | 0.7673 | 32 (≈ 15.2 µg/mL) | 32 (≈ 15.2 µg/mL) | 250 (≈ 118 µg/mL) | 250 (≈ 118 µg/mL) | 32 (≈ 15.2 µg/mL) | 32 (≈ 15.2 µg/mL) | 500 (≈ 237 µg/mL) | > 500 | 500 (≈ 237 µg/mL) | > 500 | 3.9 (≈ 1.85 µg/mL) | 15.6 (≈ 7.4 µg/mL) | 7.81 (≈ 3.7 µg/mL) | 15.6 (≈ 7.4 µg/mL) | – | 62.5 (≈ 29.6 µg/mL) | 125 (≈ 59.2 µg/mL) | 62.5 (≈ 29.6 µg/mL) | 62.5 (≈ 29.6 µg/mL)
8 | OC(Cn1cncn1)(Cn1cncn1)c1ccc(F)cc1F [FLU, fluconazole, reference compound] | – | – | – | – | – | – | – | 0.12 (≈ 0.0368 µg/mL) | > 125 | 1.95 (≈ 0.597 µg/mL) | 3.91 (≈ 1.2 µg/mL) | – | – | – | – | – | – | – | – | –
9 | O=C(O)c1cn(C2CC2)c2cc(N3CCNCC3)c(F)cc2c1=O [CPF, ciprofloxacin, reference compound] | – | – | – | – | – | – | – | – | – | – | – | – | – | 500 (≈ 166 µg/mL) | 500 (≈ 166 µg/mL) | – | 250 (≈ 82.8 µg/mL) | 250 (≈ 82.8 µg/mL) | – | –
10 | O=C(N[C@@H](Cc1ccccc1)C(=O)Nc1ccc(Cl)cc1)c1ccc(Cl)cc1O [9e] | 0.7540 | 32 (≈ 13.7 µg/mL) | 32 (≈ 13.7 µg/mL) | 32 (≈ 13.7 µg/mL) | 62.5 (≈ 26.8 µg/mL) | 32 (≈ 13.7 µg/mL) | 62.5 (≈ 26.8 µg/mL) | 125 (≈ 53.7 µg/mL) | 125 (≈ 53.7 µg/mL) | 125 (≈ 53.7 µg/mL) | 125 (≈ 53.7 µg/mL) | > 250 | > 250 | > 250 | > 250 | – | > 250 | > 250 | > 500 | > 500
11 | NNC(=O)c1ccncc1 [INH, isoniazid, reference compound] | – | 0.5 (≈ 0.0686 µg/mL) | 0.5 (≈ 0.0686 µg/mL) | > 250 | > 250 | > 250 | > 250 | – | – | – | – | – | – | – | – | – | – | – | – | –
12 | C[C@@H](NC(=O)c1cc(Cl)ccc1O)C(=O)Nc1ccc(Cl)cc1 [8h] | 0.4308 | 8 (≈ 2.83 µg/mL) | 16 (≈ 5.65 µg/mL) | 125 (≈ 44.2 µg/mL) | 125 (≈ 44.2 µg/mL) | 125 (≈ 44.2 µg/mL) | 250 (≈ 88.3 µg/mL) | > 125 | > 125 | > 125 | > 125 | > 500 | > 500 | > 500 | > 500 | – | > 500 | > 500 | > 500 | > 500
13 | O=C(CNC(=O)c1cc(Cl)ccc1O)Nc1ccc(Cl)c(Cl)c1 [8m] | 0.4971 | 125 (≈ 46.7 µg/mL) | 500 (≈ 187 µg/mL) | 62.5 (≈ 23.4 µg/mL) | 500 (≈ 187 µg/mL) | 125 (≈ 46.7 µg/mL) | 500 (≈ 187 µg/mL) | > 125 | > 125 | > 125 | > 125 | > 125 | > 125 | > 125 | > 125 | – | > 125 | > 125 | > 125 | > 125
14 | C[C@H](NC(=O)c1cc(Cl)ccc1O)C(=O)Nc1ccc(Cl)c(Cl)c1 [8n] | 0.6698 | 32 (≈ 12.4 µg/mL) | 32 (≈ 12.4 µg/mL) | 32 (≈ 12.4 µg/mL) | 62.5 (≈ 24.2 µg/mL) | 62.5 (≈ 24.2 µg/mL) | 500 (≈ 194 µg/mL) | > 125 | > 125 | > 125 | > 125 | > 500 | > 500 | > 500 | > 500 | – | > 500 | > 500 | > 500 | > 500
15 | CC(C)[C@@H](NC(=O)c1cc(Cl)ccc1O)C(=O)Nc1ccc(Br)cc1 [8t] | 0.6646 | 62.5 (≈ 26.6 µg/mL) | 62.5 (≈ 26.6 µg/mL) | 62.5 (≈ 26.6 µg/mL) | 62.5 (≈ 26.6 µg/mL) | 62.5 (≈ 26.6 µg/mL) | 125 (≈ 53.2 µg/mL) | > 125 | > 125 | > 125 | > 125 | > 125 | > 125 | > 125 | > 125 | – | > 125 | > 125 | > 125 | > 125
16 | CC(C)[C@@H](NC(=O)c1ccc(Cl)cc1O)C(=O)Nc1ccc(Cl)cc1 [9d] | 0.6832 | 62.5 (≈ 23.8 µg/mL) | 62.5 (≈ 23.8 µg/mL) | 62.5 (≈ 23.8 µg/mL) | 62.5 (≈ 23.8 µg/mL) | 62.5 (≈ 23.8 µg/mL) | 62.5 (≈ 23.8 µg/mL) | > 125 | > 125 | 7.81 (≈ 2.98 µg/mL) | 7.81 (≈ 2.98 µg/mL) | > 500 | > 500 | > 500 | > 500 | – | > 500 | > 500 | > 500 | > 500
